Assay results taken from patent US20220062240A1, “METHODS OF TREATING CANCER USING A CLK INHIBITOR” (BioSplice Therapeutics, Inc., priority 2018, published 2022).
Like-named read-outs stand apart in the source and are kept apart here.

Assays:
all 50 cell lines = test: CellTiter-Glo Viability Assay, average across all cell lines; assay type: cell-based; conditions: Homo sapiens; across all 50 cell lines; read-out: average EC50 for inhibition of cancer cell proliferation
Summary of the method: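 Human cancer cell lines from breast, colorectal, haematopoietic/lymphoid, liver, lung, ovarian, pancreatic and prostate tumours were seeded at 300-3,000 cells/well and exposed to compound in duplicate for four days at 37° C, 5% CO2. Viable cells were measured by ATP luminescence; EC50 values came from dose-response curves.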

[1] = tested on: prostate cancer (5 cell lines); test: CellTiter-Glo Viability Assay, prostate cancer; assay type: cell-based; conditions: Homo sapiens
BT-549 = test: CellTiter-Glo Viability Assay, breast cancer; assay type: cell-based; conditions: Homo sapiens, 96 h; BT-549, breast cancer, four days; read-out: EC50
MCF7 = test: CellTiter-Glo Viability Assay, breast cancer; assay type: cell-based; conditions: Homo sapiens, 96 h; MCF7, breast cancer, four days; read-out: EC50
ZR-75-1 = test: CellTiter-Glo Viability Assay, breast cancer; assay type: cell-based; conditions: Homo sapiens, 96 h; ZR-75-1, breast cancer, four days; read-out: EC50
CAMA1 = test: CellTiter-Glo Viability Assay, breast cancer; assay type: cell-based; conditions: Homo sapiens, CAMA-1, 96 h; CAMA1, breast cancer, four days; read-out: EC50
MDA-MB-231-Luc = test: CellTiter-Glo Viability Assay, breast cancer; assay type: cell-based; conditions: Homo sapiens, 96 h; MDA-MB-231-Luc, breast cancer, four days; read-out: EC50
HCC1599 = test: CellTiter-Glo Viability Assay, breast cancer; assay type: cell-based; conditions: Homo sapiens, 96 h; HCC1599, breast cancer, four days; read-out: EC50
T47D = test: CellTiter-Glo Viability Assay, breast cancer; assay type: cell-based; conditions: Homo sapiens, 96 h, breast cancer, four days, read-out: EC50
DU4475 = test: CellTiter-Glo Viability Assay, breast cancer; assay type: cell-based; conditions: Homo sapiens, DU-4475, 96 h; DU4475, breast cancer, four days; read-out: EC50
[2] = tested on: lung cancer (4 cell lines); test: CellTiter-Glo Viability Assay, lung cancer; assay type: cell-based; conditions: Homo sapiens, inhibition of cancer cell proliferation
[3] = tested on: liver cancer (3 cell lines); test: CellTiter-Glo Viability Assay, liver cancer; assay type: cell-based; conditions: Homo sapiens, inhibition of cancer cell proliferation
CLK3 = CLK3 (Homo sapiens, UniProt P49761); test: CLK3 kinase activity assay (Z-lyte, Ser/Thr 18 peptide)
Sequence of CLK3 (P49761 whole entry): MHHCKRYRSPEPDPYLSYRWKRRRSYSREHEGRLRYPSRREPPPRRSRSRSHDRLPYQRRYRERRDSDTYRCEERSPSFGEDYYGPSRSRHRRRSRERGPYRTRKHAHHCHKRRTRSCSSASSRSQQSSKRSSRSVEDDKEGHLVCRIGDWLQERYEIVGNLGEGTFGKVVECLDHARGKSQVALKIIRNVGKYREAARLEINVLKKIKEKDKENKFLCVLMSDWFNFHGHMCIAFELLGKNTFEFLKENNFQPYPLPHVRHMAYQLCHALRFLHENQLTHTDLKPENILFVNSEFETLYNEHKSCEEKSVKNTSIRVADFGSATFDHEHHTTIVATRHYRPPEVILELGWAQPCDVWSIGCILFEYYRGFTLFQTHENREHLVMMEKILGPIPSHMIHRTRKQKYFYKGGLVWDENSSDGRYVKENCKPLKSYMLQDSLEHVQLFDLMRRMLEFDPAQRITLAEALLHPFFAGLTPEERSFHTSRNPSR

[4] = tested on: colorectal cancer (6 cell lines); test: CellTiter-Glo Viability Assay, colorectal cancer; assay type: cell-based; conditions: Homo sapiens, inhibition of cancer cell proliferation
[5] = tested on: haematopoietic & lymphoid tumors (13 cell lines); test: CellTiter-Glo Viability Assay, haematopoietic & lymphoid tumors; assay type: cell-based; conditions: Homo sapiens, inhibition of cancer cell proliferation
[6] = tested on: ovarian cancer (4 cell lines); test: CellTiter-Glo Viability Assay, ovarian cancer; assay type: cell-based; conditions: Homo sapiens, inhibition of cancer cell proliferation
CLK2 = biological target: T1, CLK2 (Homo sapiens, UniProt P49760); test: CLK2 kinase activity assay (Z-lyte, Ser/Thr 6 peptide); assay type: biochemical; conditions: recombinant CLK2 kinase, ATP 60 μM; read-out: EC50
T1 construct: purchased Thermo Fisher (Life Technologies), Z'-LYTE Kinase Assay Kits
T1 sequence (P49760 whole entry): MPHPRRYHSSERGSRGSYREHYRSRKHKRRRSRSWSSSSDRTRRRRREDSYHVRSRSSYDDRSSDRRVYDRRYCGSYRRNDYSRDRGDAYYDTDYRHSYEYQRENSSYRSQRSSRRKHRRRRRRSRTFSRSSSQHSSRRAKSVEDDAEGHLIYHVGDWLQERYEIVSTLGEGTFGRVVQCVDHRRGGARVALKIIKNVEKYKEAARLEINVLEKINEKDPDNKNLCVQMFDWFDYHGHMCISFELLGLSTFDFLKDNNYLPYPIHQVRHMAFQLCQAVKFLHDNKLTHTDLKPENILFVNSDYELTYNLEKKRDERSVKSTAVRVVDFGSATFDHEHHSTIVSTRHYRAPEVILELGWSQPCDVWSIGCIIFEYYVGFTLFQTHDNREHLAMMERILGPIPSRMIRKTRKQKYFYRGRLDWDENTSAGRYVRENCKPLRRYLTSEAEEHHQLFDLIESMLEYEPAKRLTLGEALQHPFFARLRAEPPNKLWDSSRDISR
Experimental: All reactions were performed in duplicate.

[7] = tested on: pancreatic cancer (8 cell lines); test: CellTiter-Glo Viability Assay, pancreatic cancer; assay type: cell-based; conditions: Homo sapiens, inhibition of cancer cell proliferation

## CN(C)C1CN(c2cc(C(=O)Nc3cc4cc(-c5cnn(C)c5)ccc4cn3)ccn2)C1 [Compound 70]
All 50 cell lines
  EC50: 0.75 µM
[1]; DU-145, read-out: Prostate cancer EC50 Du-145
  EC50: 0.806 µM
[1]; PC-3, PC3 cell line, inhibition of cancer cell proliferation, read-out: Prostate cancer EC50 PC3
  EC50: 0.701 µM
[1]; 22Rv1 cell line, inhibition of cancer cell proliferation, read-out: Prostate cancer EC50 22Rv1
  EC50: 0.612 µM
[1]; LNCap clone FGC cell line, inhibition of cancer cell proliferation, read-out: Prostate cancer EC50 LNCap clone FGC
  EC50: 1.08 µM
[1]; VCaP (Sigma) cell line, inhibition of cancer cell proliferation, read-out: Prostate cancer EC50 VCaP (Sigma)
  EC50: 1.06 µM
BT-549
  EC50: 0.496 µM
MCF7
  EC50: 2.15 µM
ZR-75-1
  EC50: 1.12 µM
CAMA1
  EC50: 0.788 µM
MDA-MB-231-Luc
  EC50: 0.891 µM
HCC1599
  EC50: 0.51 µM
T47D
  EC50: 1.35 µM
DU4475
  EC50: 0.624 µM
[2]; A-427, A427 cell line, read-out: Lung cancer, EC50 (μM) A427
  EC50: 0.605 µM
[2]; HCC78, HCC-78 cell line, read-out: Lung cancer, EC50 (μM) HCC-78
  EC50: 1.12 µM
[2]; NCI-H460 cell line, read-out: Lung cancer, EC50 (μM) NCI-H460
  EC50: 1.13 µM
[2]; NCI-H522 cell line, read-out: Lung cancer, EC50 (μM) NCI-H522
  EC50: 0.389 µM
[3]; SNU-398, SNU398 cell line, read-out: Liver cancer, EC50 SNU398
  EC50: 0.205 µM
[3]; HEPG2 cell line, read-out: Liver cancer, EC50 HEPG2
  EC50: 0.75 µM
[3]; PLC/PRF/5 cell line, read-out: Liver cancer, EC50 PLC/PRF/5
  EC50: 1.47 µM
CLK3
  EC50: 0.0245 µM
[4]; HCT-116, HCT116 cell line, read-out: Colorectal cancer, EC50 (μM) HCT116
  EC50: 0.465 µM
[4]; HT-29, HT29 cell line, read-out: Colorectal cancer, EC50 (μM) HT29
  EC50: 1.09 µM
[4]; SW-620, SW620 cell line, read-out: Colorectal cancer, EC50 (μM) SW620
  EC50: 0.352 µM
[4]; DLD-1 cell line, read-out: Colorectal cancer, EC50 (μM) DLD-1
  EC50: 0.481 µM
[4]; SW48 cell line, read-out: Colorectal cancer, EC50 (μM) SW48
  EC50: 0.285 µM
[4]; SW480 cell line, read-out: Colorectal cancer, EC50 (μM) SW480
  EC50: 0.739 µM
[5]; DND41, DND-41 cell line, read-out: Haematopoietic & Lymphoid tumors, EC50 (μM) DND-41
  EC50: 0.774 µM
[5]; MV4-11, MV-4-11 cell line, read-out: Haematopoietic & Lymphoid tumors, EC50 (μM) MV-4-11
  EC50: 0.193 µM
[5]; Rec1, REC-1 cell line, read-out: Haematopoietic & Lymphoid tumors, EC50 (μM) REC-1
  EC50: 0.189 µM
[5]; SU-DHL-4, SUDHL4 cell line, read-out: Haematopoietic & Lymphoid tumors, EC50 (μM) SUDHL4
  EC50: 0.899 µM
[5]; HL-60 cell line, read-out: Haematopoietic & Lymphoid tumors, EC50 (μM) HL-60
  EC50: 1.24 µM
[5]; JM1 cell line, read-out: Haematopoietic & Lymphoid tumors, EC50 (μM) JM1
  EC50: 0.273 µM
[5]; JURKAT, Clone E6-1 cell line, read-out: Haematopoietic & Lymphoid tumors, EC50 (μM) JURKAT, Clone E6-1
  EC50: 0.863 µM
[5]; JeKo-1 cell line, read-out: Haematopoietic & Lymphoid tumors, EC50 (μM) JeKo-1
  EC50: 0.347 µM
[5]; KASUMI-1 cell line, read-out: Haematopoietic & Lymphoid tumors, EC50 (μM) KASUMI-1
  EC50: 0.555 µM
[5]; Loucy cell line, read-out: Haematopoietic & Lymphoid tumors, EC50 (μM) Loucy
  EC50: 0.617 µM
[5]; MOLT-4 cell line, read-out: Haematopoietic & Lymphoid tumors, EC50 (μM) MOLT-4
  EC50: 0.643 µM
[5]; TF-1 cell line, read-out: Haematopoietic & Lymphoid tumors, EC50 (μM) TF-1
  EC50: 0.785 µM
[5]; TOLEDO cell line, read-out: Haematopoietic & Lymphoid tumors, EC50 (μM) TOLEDO
  EC50: 0.25 µM
[6]; PA-1, PA1 cell line, read-out: Ovarian cancer, EC50 (μM) PA1
  EC50: 0.585 µM
[6]; TOV112D, TOV-112D cell line, read-out: Ovarian cancer, EC50 (μM) TOV-112D
  EC50: 0.593 µM
[6]; OV-90 cell line, read-out: Ovarian cancer, EC50 (μM) OV-90
  EC50: 1.45 µM
[6]; OVCAR-3 cell line, read-out: Ovarian cancer, EC50 (μM) OVCAR-3
  EC50: 0.37 µM
CLK2
  EC50: 0.0016 µM
[7]; BXPC-3, BxPC3 cell line, read-out: Pancreatic cancer, EC50 BxPC3
  EC50: 0.94 µM
[7]; CAPAN-1, Capan1 cell line, read-out: Pancreatic cancer, EC50 Capan1
  EC50: 0.702 µM
[7]; Capan-2, Capan2 cell line, read-out: Pancreatic cancer, EC50 Capan2
  EC50: 1.14 µM
[7]; MIA PaCa-2 cell line, read-out: Pancreatic cancer, EC50 MIA PaCa-2
  EC50: 0.461 µM
[7]; PANC 05.04 cell line, read-out: Pancreatic cancer, EC50 PANC 05.04
  EC50: 0.713 µM
[7]; PANC-1 cell line, read-out: Pancreatic cancer, EC50 PANC-1
  EC50: 1.22 µM
[7]; UPAFII cell line, read-out: Pancreatic cancer, EC50 UPAFII
  EC50: 0.385 µM
